Results from patent publication US20060116403A1, “Therapeutic target and uses thereof” (priority 2002, published 2006).
Like-named read-outs stand apart in the source and are kept apart here.

Key:
[1] = test system: human vascular smooth muscle cells (internal mammary artery); assay: 35S-sulfate incorporation into total secreted proteoglycans (CPC precipitation); type: cell-based; conditions: for inhibition of PDGF-stimulated component of proteoglycan production: imatinib 1 μM, genistein 100 μM
Description: The Human Ethics Committee of the Alfred Hospital and Baker Heart Research Institute approved the acquisition of tissue.
Cells were metabolically labeled with [^35S]-sulfate ([…]) for the final 24 h.
(§1) The culture media were collected and each plate rinsed with Dulbecco's PBS (0.25 ml). Aliquots (50 μl) of the media sample were spotted in duplicate on 30×15 mm rectangles of Whatman® 3M chromatography paper (Aldrich, Milwaukee, U.S.A.). The paper was washed five times in a solution containing cetylpyridinium chloride (CPC, 1% w/v) and NaCl (50 mM). Following air drying at room temperature, the paper from each sample was placed in liquid scintillation fluid (Packard, Groningen, The Netherlands) and radioactivity counted in a Beckman Coulter liquid scintillation analyzer (Fullerton, U.S.A). Counts from cells labeled with [^35S]-sulfate and Tran^35SLabel represented total sulfated GAGs and total core protein respectively.

[2] = test system: human vascular smooth muscle cells; assay: Xyloside-initiated GAG chain synthesis and size; type: cell-based; conditions: xyloside 0.5 mM; for effect on increase in size of GAG chains on xyloside, PDGF: PDGF treated cells
Description: To study glycosaminoglycan (GAG) synthesis, cells were treated with exogenous xyloside which acts as an artificial and alternative substrate for the enzymes which normally catalyze the initiation of GAG chains on the protein core Nigro J et al (2002)) and Moses, J., Oldberg, A. & Fransson, L. A. Initiation of galactosaminoglycan biosynthesis. Separate galactosylation and dephosphorylation pathways for phosphoxylosylated decorin protein and exogenous xyloside. Eur J Biochem 260, 879-84 (1999)) generating free xyloside-initiated GAG chains. β-D-Xylopyranoside (xyloside) (0.5 mM) was prepared in DMEM with FBS (0.1%) and DMSO (0.1%). […] Cells were metabolically labeled with [^35S]-sulfate (50 μCi/well) for 24 hours.
SDS-PAGE gels were prepared following the procedure of Laemelli (Laemmli, U.K. Cleavage of structural proteins during the assembly of the head of bacteriophage T4. Nature 227, 680-5 (1970)) on 4-13% linear gradient separating gels for intact proteoglycans and 4-20% separating gels for cleaved chains and xyloside-initiated GAGs, with a 3.5% stacking gel. For the estimation of apparent relative masses (MrS) ^14C high molecular weight standards (GIBCO BRL, Grand Island, U.S.A) were run in separate lanes.
Cell cultures supplemented with xyloside synthesize the normal family of proteoglycans but also free GAG chains which are synthesized on the xyloside acting as a “false acceptor” for GAG initiation. […] The analysis of the production of the xyloside-initiated GAG chains therefore represents an independent assay of the activity of the GAG elongation process which normally determine the length of GAGs on proteoglycans. […]. GAG chains produced on xyloside are considerably smaller than free GAG chains synthesized on and released from proteoglycans (compare FIG. 2 right panel with FIG. 3 lower panel). The band at the bottom of the SDS-PAGE is the GAG chains initiated on xyloside. Genistein and daidzein have no effect on the size of the GAGs either under basal or PDGF stimulated conditions. […].

[3] = test system: human vascular smooth muscle cells; assay: Proteoglycan core protein synthesis (35S-methionine/cysteine, CPC precipitation); type: cell-based
Description: as §1
Effects on core protein biosynthesis can be evaluated by metabolically labeling the cells with labeled amino acids (^35S-methionine/cysteine) and using an isolation technique “CPC precipitation” which is specific for isolating proteoglycans. Thus, cells were treated identically to the above experiments but labeled with ^35S-methionine/cysteine. […]. Core protein biosynthesis was stimulated by PDGF (FIG. 5; […].

human LDL [4] = assay: LDL affinity chromatography of radiolabeled proteoglycans; type: cell-based; conditions: for effect on increased LDL binding of proteoglycans from PDGF treated cells: PDGF 50 ng/ml, imatinib 1 μM, genistein 100 μM
Description: Human blood samples were obtained from healthy subjects. LDL (d=1.019−1.063 g/ml) was purified from blood by sequential density gradient ultracentrifugation as described by Heinecke, J. W., Baker, L., Rosen, H. & Chait, A. Superoxide-mediated modification of low density lipoprotein by arterial smooth muscle cells. J Clin Invest 77, 757-61 (1986). The interaction of total pooled intact proteoglycan preparations with native human LDL was assessed using LDL affinity chromatography, providing a measure of binding capacity. […] Sepharose was prepared in the presence of excess heparin to protect the GAG binding sites. The columns were washed with HEPES buffer above and then with 1M NaCl to remove heparin. Each sample (80,000 cpm) was applied to a separate column. The columns were washed extensively with low salt buffer then eluted (5×0.5 ml) with 1M NaCl to elute bound proteoglycans. Finally the columns were stripped with high salt, high urea buffer. The aggregate radioactivity retained by the LDL column after extensive washing and eluted with 1M NaCl was determined as the binding capacity for the column.
We observed a 36% increase in the binding capacity of proteoglycans in PDGF treated cells compared to untreated cells (FIG. 5).

[5] = test system: saphenous vein vascular smooth muscle cells; conditions: saphenous vein VSMC
Description: Cultures of vascular smooth muscle cells from human saphenous veins samples obtained (with Ethics approval) from Cardiac Theatres at the Alfred Hospital were prepared.

human LDL [6] = assay: Gel Mobility Shift Assay of core protein labelled proteoglycans binding to human LDL
Description: A new approach to these studies is now used in which the proteoglycan core proteins are metabolically radio-labelled and used to study the binding of human LDL. Cells are incubated with Translabel® (ICN Biochemicals) (^35S-methioinine and cysteine amino acids) and the amino acids are incorporated into the core proteins.
Core protein labelled proteoglycans were isolated by DEAE sepharose ion exchange chromatography and then the binding to human LDL was studied in a Gel Mobility Shift Assay in which a set amount of radiolabeled proteoglycan is incubated with various amounts of LDL and then the bound and free proteoglycans are separated on a flat bed agarose gel.

[7] = test system: human vascular smooth muscle cells; assay: Size of proteoglycans and cleaved GAG chains by SDS-PAGE; type: cell-based; conditions: for effect on elongation of GAG chains stimulated by PDGF: PDGF treated cells; for effect on size of GAG chains released from proteoglycans, basal: basal (untreated cells); for effect on proteoglycan size (SDS-PAGE): basal and PDGF treated cells, imatinib 1 μM, genistein/daidzein 100 μM
Description: DEAE-Sephacel columns were prepared as previously described 19 and were washed with low salt buffer containing 8 M urea, 0.25 M NaCl, 0.02 M disodium EDTA and 0.5% Triton X-100. The media of 3 identical treatments was pooled and applied to the column. The columns were washed with low salt buffer to remove non-proteoglycan associated radioactivity. Fractions were collected with high salt buffer containing 8 M urea, 3 M NaCl, 0.02 M disodium EDTA and 0.5% Triton X-100.
Samples were prepared for SDS-PAGE by set counts so that the amount of radioactivity applied to the gel was the same for each treatment.
Proteoglycans eluted from DEAE columns and precipitated once with ethanol/potassium acetate solution were treated with sodium borohydride (1 M) in NaOH (50 mM) for 4 h at 45° C. to release the GAG chains. The free GAG chains were precipitated with the ethanol/potassium acetate solution and analyzed for size by SDS-PAGE.
For the estimation of apparent relative masses (MrS) ^14C high molecular weight standards (GIBCO BRL, Grand Island, U.S.A) were run in separate lanes.
The labeled proteoglycans, cleaved chains, xyloside-initiated GAGs and standard proteins were exposed (3 days) to a Fujifilm imaging plate (Fuji Photo Film Co., Japan) and the imaging plate scanned by the Bio-imaging analyzer BAS-1000 MacBas (Fuji Photo Film Co., Japan).

cAbl kinase = cAbl kinase (Homo sapiens, UniProt P00519); assay: Direct assay of cAbl kinase activity; type: biochemical
cAbl kinase, sequence (P00519 whole entry): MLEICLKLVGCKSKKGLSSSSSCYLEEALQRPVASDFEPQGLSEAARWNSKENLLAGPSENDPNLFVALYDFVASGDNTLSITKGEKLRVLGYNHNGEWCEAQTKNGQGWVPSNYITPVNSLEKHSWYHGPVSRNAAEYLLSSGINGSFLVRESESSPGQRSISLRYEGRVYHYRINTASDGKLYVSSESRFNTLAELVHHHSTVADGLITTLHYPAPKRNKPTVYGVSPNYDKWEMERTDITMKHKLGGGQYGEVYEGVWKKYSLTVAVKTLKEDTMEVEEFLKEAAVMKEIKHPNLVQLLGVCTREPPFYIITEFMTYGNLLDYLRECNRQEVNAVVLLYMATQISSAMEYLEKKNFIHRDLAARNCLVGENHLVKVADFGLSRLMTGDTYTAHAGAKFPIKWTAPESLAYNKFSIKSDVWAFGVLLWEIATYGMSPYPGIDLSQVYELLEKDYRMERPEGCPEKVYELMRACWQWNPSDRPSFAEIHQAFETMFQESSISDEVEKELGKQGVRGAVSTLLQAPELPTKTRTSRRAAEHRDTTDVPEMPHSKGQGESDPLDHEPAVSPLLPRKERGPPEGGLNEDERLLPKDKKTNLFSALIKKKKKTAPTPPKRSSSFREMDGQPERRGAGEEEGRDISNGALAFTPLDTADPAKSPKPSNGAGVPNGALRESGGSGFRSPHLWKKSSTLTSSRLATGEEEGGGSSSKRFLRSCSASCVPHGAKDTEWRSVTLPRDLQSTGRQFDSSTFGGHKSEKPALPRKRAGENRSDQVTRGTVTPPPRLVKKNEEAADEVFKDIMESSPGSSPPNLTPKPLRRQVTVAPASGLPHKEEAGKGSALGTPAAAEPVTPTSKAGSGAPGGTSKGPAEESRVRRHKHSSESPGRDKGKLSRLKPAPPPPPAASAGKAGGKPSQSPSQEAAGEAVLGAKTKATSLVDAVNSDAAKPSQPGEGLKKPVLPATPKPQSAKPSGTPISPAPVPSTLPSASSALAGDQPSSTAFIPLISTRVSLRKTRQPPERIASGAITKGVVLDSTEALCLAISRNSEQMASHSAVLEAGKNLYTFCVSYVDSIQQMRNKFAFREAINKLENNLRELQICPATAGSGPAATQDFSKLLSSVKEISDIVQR
Description: The direct cAbl kinase inhibitory activity of several compounds was evaluated.

K562 cells = assay: Inhibition of K562 cell proliferation; type: cell-based
Source text: K562 cells are Philadelphia chromosome tumour cells in which constitutively active cAbl (but possibly other pathways) drive the cell proliferation. […] These cells provide an assay to discriminate inhibition of tyrosine kinases in a whole cell assay.

[8] = test system: vascular smooth muscle cells; conditions: cited from earlier work
[9] = test system: vascular smooth muscle cells; assay: Sepharose 6B size exclusion chromatography of cleaved GAG chains; type: cell-based, human
[10] = test system: vascular smooth muscle cells; assay: 35S-sulphate incorporation into proteoglycans, cAbl siRNA transfection compared with imatinib; type: cell-based, human; conditions: culture media
Source text: An independent method is available to examine this question by using molecular biology techniques to block the expression of the mRNA for cAbl and thus reduce the actual level of cAbl mRNA, protein and enzyme activity in the cell. A new technique of post-transcriptional gene silencing known as small inhibitory RNA (or siRNA) has recently been developed in which cells are transfected with an siRNA which leads to the breakdown and loss of the target mRNA in this case cAbl RNA. This is a highly specific technique which complements the pharmacological approach. […] Target sequences for siRNA have been identified from the scanning of the coding region of the human c-Abl gene. Four of these potential sites were selected and compared to a genome database to identify any sequence homology to other genes. Following identification of target sequences, sense and anti-sense siRNA oligonucleotide templates are constructed consisting of 21 nucleotides encoding the siRNA and 8 nucleotides complementary to a promoter primer. […] Both sense and anti-sense siRNA oligonucleotide templates were hybridised to a promoter primer. Double stranded siRNA transcription templates was created by extending the hybridised oligonucleotides using the Klenow fragment of DNA polymerase and RNA polymerase used to transcribe the sense and anti-sense siRNA templates which were then hybridised to dsRNA. […]

[11] = Homo sapiens, 24 h, read-out: inhibition of basal proteoglycan production

Row | Molecule | inhibition of PDGF-stimulated component of proteoglycan production ([1]; PDGF 50 ng/ml) | effect on combined production of proteoglycans and xyloside-initiated GAG chains [2] | effect on increase in size of GAG chains on xyloside, PDGF [2] | effect on size of GAG chains on xyloside, basal [2] | effect on PDGF-stimulated core protein biosynthesis [3] | effect on basal proteoglycan core protein biosynthesis [3] | effect on increased LDL binding of proteoglycans from PDGF treated cells (human LDL [4]) | effect on elongation of GAG chains stimulated by PDGF [7] | effect on size of GAG chains released from proteoglycans, basal [7] | effect on proteoglycan size (SDS-PAGE) [7] | inhibition of cAbl kinase activity (cAbl kinase) | also measured
1 | Cc1ccc(NC(=O)c2ccc(CN3CCN(C)CC3)cc2)cc1Nc1nccc(-c2cccnc2)n1 [imatinib, 4-[(4-methyl-1-piperazinyl)methyl]-N-[4-methyl-3-[[4-(3-pyridinyl)-2-pyrimidinyl]amino-phenyl]benzamide methanesulfonate] | totally blocked | essentially identical | completely prevented | slightly reduced | attenuated | very small but not statistically significant inhibitory effect | completely abolished | – | – | – | – | inhibition at 1 µM [1, 11]: 56%; effect on GAG length (SDS-PAGE mobility) [5]: shortens; decrease in LDL binding affinity (human LDL [6]; basal): three fold
2 | O=c1c(-c2ccc(O)cc2)coc2cc(O)ccc12 [daidzein, 4′,7-dihydroxyisoflavone] | – | essentially identical | no effect | no effect | attenuated | considerably less active than genistein | – | no effect | no effect | no effect | little activity | inhibition of basal proteoglycan production ([1]; basal, daidzein 100 μM): little inhibitory activity
3 | CO[C@H]1[C@@H](OC)C[C@H](C)[C@@H](OC)C2=CC(=O)C=C(NC(=O)/C(C)=C/C=C\[C@H](OC)[C@@H](OC(N)=O)/C(C)=C/[C@@H]1C)C2=O [herbimycin] | – | – | – | – | – | – | – | – | – | – | little activity | effect on radiosulfate incorporation into proteoglycans ([1]; herbimycin): does not inhibit; effect on size of GAGs on proteoglycan (SDS-PAGE) ([7]; herbimycin): does not reduce; inhibition of cAbl kinase activity (cAbl kinase; listed as Herbimycin): no inhibitory activity
4 | O=c1c(-c2ccc(O)cc2)coc2cc(O)cc(O)c12 [genistein, 4′,5,7-trihydroxyisoflavone] | less inhibitory than imatinib | essentially identical | no effect | no effect | attenuated | reduced | does not prevent | no effect | no effect | no effect | little activity | inhibition at 100 µM [1, 11]: 64%; concentration of maximal effect on proteoglycan production ([1]; dose response curves): 100 µM; potency against cAbl relative to imatinib (times less potent) (cAbl kinase): 160 times; inhibition of K562 cell proliferation (K562 cells): little or no inhibitory activity; effect on total proteoglycan production ([8]; Primate VSMC in culture): inhibited; effect on basal expression of versican mRNA and core protein ([8]; basal): almost completely abolishes; effect on GAG length [8]: no effect
5 | PDGF: human recombinant platelet derived growth factor-BB, growth factor stimulus | – | – | – | – | – | – | – | – | – | – | – | increase of proteoglycan production ([1]; PDGF 50 ng/ml): approximately two-fold; increase in LDL binding capacity of proteoglycans (human LDL [4]; PDGF treated cells compared to untreated cells): 36%; Kav of cleaved GAG chains, PDGF stimulated [9]: 0.45; half-maximal saturation concentration of LDL, PDGF stimulated cells (human LDL [6]; PDGF stimulated): 25 µg/mL
6 | siRNA (MB 61): siRNA directed to cAbl; anti-sense template 5′-AAGAAAAACTTCATCCACAGA-3′, sense template 5′-AATCTGTGGATGAAGTTTTTC-3′ (antisense AAGAAAAACTTCATCCACAGA; sense AATCTGTGGATGAAGTTTTTC; chemistry not given here; the letters are possibly those of the target site) | – | – | – | – | – | – | – | – | – | – | – | reduction in 35S-sulphate incorporation, PDGF cells ([10]; PDGF stimulated): 50%; inhibition of radiosulphate incorporation, control cells ([10]; control cells, 24 h): 30-40%
